Our source for the IC50 values is paper PMC11245370, “3-Position Biaryl Endochin-like Quinolones with Enhanced Antimalarial Performance” (ACS Infectious Diseases, 2024).

For data set [1], the system named is P. falciparum drug-sensitive D6 strain. Put plainly: SYBR Green I antiplasmodial assay, D6 strain. The format is cell-based. Particulars: Plasmodium falciparum, D6, 72 h, read-out: P. falciparum IC50 values, D6. As to the method: (§1) All of this information is stored in a database with information relating to chemical structure, physical chemical properties, cross resistance patterns, mammalian cell cytotoxicity, enzyme inhibitor profiles, and synthesis details. Pharmacological data and in vivo efficacy data are also stored in the database for molecules of particular interest. […] We synthesized the compound in an initial batch size of about 800 mg as described above. […] Fluorescence readings were captured with a fluorescence plate reader and processed by nonlinear regression analysis using the GraphPad Prism software to provide IC50 values for each determination. Stock solutions were freshly prepared daily in DMSO in glass vials.
(§2) Laboratory strains of P. falciparum were cultured in human erythrocytes by standard methods. The parasites were grown in culture medium with fresh human erythrocytes maintained at 2% hematocrit at 37 °C in low-oxygen conditions (5% O2, 5% CO2, 90% N2). […] Cultures were maintained at less than 10% parasitemia by transfer of infected cells to fresh erythrocytes and culture medium every 3 or 4 days.
(§3) SYBR green I assay. In vitro antiplasmodial activity was assessed using a published SYBR Green I fluorescence-based method.[20] The drugs were added to 96-well plates using twofold serial dilutions in complete medium. […] Asynchronous P. falciparum parasites were diluted with uninfected erythrocytes and added to the wells to give a final culture volume of 100 μL at 2% hematocrit and 0.2% parasitemia. […] The parasites were then lysed by adding 100 μL of SYBR green I lysis buffer containing 0.2 μL/ml SYBR green I dye (10,000×) in 20 mM Tris (pH 7.5), 5 mM EDTA, 0.008% (wt/vol) saponin, and 0.08% (v/v) Triton X-100. The plates were incubated at room temperature for an hour in the dark. […] If the IC50 value fell outside of the initially tested range, then the range was adjusted up or down, and the assay was repeated twice.

Data set [2] deals with P. falciparum multidrug-resistant Dd2 strain. Put plainly: microbe, parasite or virus in culture. The format is cell-based. The following applies: Plasmodium falciparum, DD2, 72 h, read-out: P. falciparum IC50 values, Dd2. As to the method:
as §1, §2, §3

The test system of data set [3] is P. falciparum atovaquone-resistant clinical isolate Tm90-C2B. Put plainly: SYBR Green I antiplasmodial assay, Tm90-C2B. Particulars: Plasmodium falciparum, TM90, 72 h, read-out: P. falciparum IC50 values, Tm90-C2B. The class given is cell-based. As to the method:
as §1, §2, §3

The test system of data set [4] is P. falciparum ELQ-300-resistant D1 clone. Put plainly: microbe, parasite or virus in culture. The class given is cell-based. Particulars: Plasmodium falciparum, 72 h, read-out: P. falciparum IC50 values, D1.
A short description of data set [5]: HepG2 cytotoxicity / mitochondrial toxicity (TiterGlo ATP, galactose medium). The following applies: human.
Procedure: HepG2 was routinely cultured in DMEM containing 10% fetal calf serum and 100 IU/mL penicillin and 100 μg/mL streptomycin (complete medium). For studies to investigate the potential for mitochondrial toxicity by selected 3-biaryl-ELQs, the medium contained galactose rather than glucose to force the cells to produce ATP through oxidative phosphorylation, which in turn makes them sensitive to mitochondrial toxicants.[36] […] After this period, the culture medium was removed, and the cells were shifted to galactose-containing medium with test drugs at concentrations ranging from 0 to 10 μM. Drug dilutions were prepared from DMSO stocks into galactose-containing medium. […] After incubation, the contents of each well were removed, and 25 μL of TiterGlo II reagent mix containing luciferase, detergent, and luciferin was added to each well along with 25 μL of culture medium. […] At this point, the plates were read on a luminometer (SpectraMax iD3 iD5Multi-Mode Microplate Reader), and the data were processed to yield the percent decrease in ATP production relative to no-drug control values. These values reflect the potential damage caused by mitochondrial toxicants due to reduced intracellular ATP levels caused by interference with the human mitochondrial electron transport chain. Assays were set up in triplicate.

On to `COc1cc2[nH]c(C)c(-c3ccc(-c4ccc(Cl)cc4)cc3)c(=O)c2cc1Cl` [ELQ-637, 6-Chloro-3-(4′-chloro-[1,1′-biphenyl]-4-yl)-7-methoxy-2-methylquinolin-4(1H)-one], for which the IC50 in data set [1] is 3.4 nM; in data set [2], 7.1 nM; in data set [3] it was 3 nM; in data set [4] it was greater than 250 nM. In addition, the IC50 at 24 h in data set [5] (HepG2 cells) is greater than 10000 nM.

For the molecule `Cc1[nH]c2cc(F)cc(F)c2c(=O)c1-c1ccc(Oc2ccc(OC(F)(F)F)cc2)cc1` [ELQ-400, reference compound], the IC50 in data set [1] amounted to 0.19 nM; in data set [2], 0.44 nM; in data set [3], 19.3 nM; in data set [4] it was 0.73 nM. The same molecule returned a half-maximal inhibitory concentration (IC50) at 24 h in data set [5] of 10000 nM.

Take `COc1cc2[nH]c(C)c(-c3ccc(-c4ccc(C(F)F)cc4)cc3)c(=O)c2cc1Cl` [ELQ-659, 6-Chloro-3-(4′-(difluoromethyl)-[1,1′-biphenyl]-4-yl)-7-methoxy-2-methylquinolin-4(1H)-one]: the IC50 in data set [1] is 1.8 nM; in data set [2], 1.8 nM; in data set [3], 0.57 nM; in data set [4], greater than 250 nM. The molecule also gave an IC50 at 24 h in data set [5] (HepG2 cells) greater than 10000 nM.

In the case of `COc1cc2[nH]c(C)c(-c3ccc(-c4cccc(C(F)(F)F)c4)cc3)c(=O)c2cc1Cl` [ELQ-646, 6-Chloro-7-methoxy-2-methyl-3-(3′-(trifluoromethyl)-[1,1′-biphenyl]-4-yl)quinolin-4(1H)-one], the IC50 in data set [1] was 1.1 nM; in data set [2], 2.7 nM; in data set [3], 1 nM; in data set [4], greater than 250 nM. The IC50 at 24 h in data set [5] (HepG2 cells) was greater than 10000 nM.

As to `COc1cc2[nH]c(C)c(-c3ccc(-c4ccc(C(F)(F)F)cc4)cc3)c(=O)c2cc1Cl` [ELQ-647, 6-Chloro-7-methoxy-2-methyl-3-(4′-(trifluoromethyl)-[1,1′-biphenyl]-4-yl)quinolin-4(1H)-one], the IC50 in data set [1] was 3.5 nM; in data set [2] it was 7.8 nM; in data set [3], 3.5 nM; in data set [4], greater than 250 nM. For the same molecule, the IC50 at 24 h in data set [5] (HepG2 cells) is greater than 10000 nM.

Regarding `COc1cc2[nH]c(C)c(-c3ccc(-c4ccc(C)cc4)cc3)c(=O)c2cc1Cl` [ELQ-603, 6-Chloro-7-methoxy-2-methyl-3-(4′-methyl-[1,1′-biphenyl]-4-yl)quinolin-4(1H)-one], the IC50 was 1 nM in data set [1], 3.8 nM in data set [2], 1.5 nM in data set [3] and greater than 250 nM in data set [4].

With `Cc1[nH]c2ccccc2c(=O)c1-c1ccc(-c2ccc(OC(F)(F)F)cc2)cc1` [ELQ-649, 2-Methyl-3-(4′-(trifluoromethoxy)-[1,1′-biphenyl]-4-yl)quinolin-4(1H)-one], the IC50 in data set [1] is 7.9 nM; in data set [2], 8.3 nM; in data set [3] it was 6 nM; in data set [4], 15.8 nM.

Regarding `COc1cc2[nH]c(C)c(-c3ccc(-c4cccc(S(F)(F)(F)(F)F)c4)cc3)c(=O)c2cc1Cl` [ELQ-662, 6-Chloro-7-methoxy-2-methyl-3-(3′-(pentafluorosulfanyl)-[1,1′-biphenyl]-4-yl)quinolin-4(1H)-one], the IC50 is 0.7 nM in data set [1], 1.3 nM in data set [2], 1.4 nM in data set [3] and greater than 250 nM in data set [4].

Regarding `COc1cc2[nH]c(C)c(-c3ccc(-c4cccc(OC(F)(F)F)c4)cc3)c(=O)c2cc1Cl` [ELQ-604, 6-Chloro-7-methoxy-2-methyl-3-(3′-(trifluoromethoxy)-[1,1′-biphenyl]-4-yl)quinolin-4(1H)-one], the IC50 in data set [1] is 0.6 nM; in data set [2] it was 0.5 nM; in data set [3], 0.5 nM; in data set [4], greater than 250 nM. The concentration for half-maximal inhibition (IC50) at 24 h in data set [5] (HepG2 cells) is greater than 10000 nM.

Molecule `C=C(C)[C@H]1Cc2c(ccc3c2O[C@@H]2COc4cc(OC)c(OC)cc4[C@@H]2C3=O)O1` [rotenone, reference compound] showed an IC50 at 24 h in data set [5] of less than 1000 nM.

`COc1cc2[nH]c(C)c(-c3ccc(-c4ccc(S(F)(F)(F)(F)F)cc4)cc3)c(=O)c2cc1Cl` [ELQ-663, 6-Chloro-7-methoxy-2-methyl-3-(4′-(pentafluorosulfanyl)-[1,1′-biphenyl]-4-yl)quinolin-4(1H)-one]: the IC50 is 1.6 nM in data set [1], 3.2 nM in data set [2], 3.8 nM in data set [3] and greater than 250 nM in data set [4].

`COc1ccc(-c2ccc(-c3c(C)[nH]c4cc(OC)c(Cl)cc4c3=O)cc2)cc1` [ELQ-645, 6-Chloro-7-methoxy-3-(4′-methoxy-[1,1′-biphenyl]-4-yl)-2-methylquinolin-4(1H)-one]: the IC50 in data set [1] was 5 nM; in data set [2], 10.2 nM; in data set [3], 6 nM; in data set [4], greater than 250 nM.

For `COc1cc2[nH]c(C)c(-c3ccc(-c4ccc(Oc5ccc(OC(F)(F)F)cc5)cc4)cc3)c(=O)c2cc1Cl` [ELQ-653, 6-Chloro-7-methoxy-2-methyl-3-(4′-(4-(trifluoromethoxy)phenoxy)-[1,1′-biphenyl]-4-yl)quinolin-4(1H)-one], the IC50 is 1.5 nM in data set [1], 1.4 nM in data set [2], 0.88 nM in data set [3] and greater than 250 nM in data set [4].

For `Cc1[nH]c2cc(F)cc(F)c2c(=O)c1-c1ccc(-c2ccc(OC(F)(F)F)cc2)cc1` [ELQ-601, 5,7-Difluoro-2-methyl-3-(4′-(trifluoromethoxy)-[1,1′-biphenyl]-4-yl)quinolin-4(1H)-one], the IC50 in data set [1] stood at 5.9 nM; in data set [2], 14.3 nM; in data set [3], 24.5 nM; in data set [4], 9.3 nM.

Consider `COc1cc2[nH]c(C)c(-c3ccc(-c4ccc(OC(F)F)cc4)cc3)c(=O)c2cc1Cl` [ELQ-600, 6-Chloro-3-(4′-(difluoromethoxy)-[1,1′-biphenyl]-4-yl)-7-methoxy-2-methylquinolin-4(1H)-one], for which the half-maximal inhibitory concentration (IC50) was 3.9 nM in data set [1], 13.4 nM in data set [2], 5.9 nM in data set [3] and greater than 250 nM in data set [4]. In data set [5] (HepG2 cells), this molecule returned an IC50 at 24 h greater than 10000 nM.

With `COc1cc2[nH]c(C)c(-c3ccc(-c4ccc(C(C)(C)C)cc4)cc3)c(=O)c2cc1Cl` [ELQ-651, 3-(4′-(tert-Butyl)-[1,1′-biphenyl]-4-yl)-6-chloro-7-methoxy-2-methylquinolin-4(1H)-one], the IC50 in data set [1] was 1.1 nM; in data set [2], 1.4 nM; in data set [3], 0.49 nM; in data set [4], greater than 250 nM.

Turning to `COc1cc2[nH]c(C)c(-c3ccc(-c4ccc(C#N)cc4)cc3)c(=O)c2cc1Cl` [ELQ-602, 4′-(6-Chloro-7-methoxy-2-methyl-4-oxo-1,4-dihydroquinolin-3-yl)-[1,1′-biphenyl]-4-carbonitrile], the IC50 was 4.8 nM in data set [1], 25.2 nM in data set [2], 10.9 nM in data set [3] and greater than 250 nM in data set [4].

`COc1cc2[nH]c(C)c(-c3ccc(-c4ccc(OC(F)(F)F)cc4)cc3)c(=O)c2cc1F` [ELQ-650, 6-Fluoro-7-methoxy-2-methyl-3-(4′-(trifluoromethoxy)-[1,1′-biphenyl]-4-yl)quinolin-4(1H)-one]: the IC50 is 0.8 nM in data set [1], 1.1 nM in data set [2], 0.4 nM in data set [3] and 14 nM in data set [4]. The molecule also displayed an IC50 at 24 h in data set [5] (HepG2 cells) greater than 10000 nM.

Take `Cc1[nH]c2c(c(=O)c1-c1ccc(-c3ccc(OC(F)(F)F)cc3)cc1)CCCC2` [ELQ-660]: the IC50 in data set [1] is 14.8 nM; in data set [2], 12.8 nM; in data set [3], 7.9 nM; in data set [4], 22.2 nM.
